Measurements as given in PubChem BioAssay (NCI).
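All cell lines were grown in 96-well plates and treated with compound for 48 hours. GI50 is the concentration that inhibits growth by half. Definition used: TGI = concentration required for complete inhibition of growth.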

What follows are molecules tested on ACHN renal (assay: inhibition of tumour cell growth, NCI panel, 48 h).

Row | Structure (SMILES) | GI50 [µM] | TGI [µM]
1 | N#CC1(c2ccc(NC(=O)c3cccnc3NCc3ccncc3)cc2)CCCC1 | 12.4 | > 70.9
2 | CCN1C(=S)N(CC)C2C1NC(=S)N2/N=C/C=C/c1ccccc1OC (stereo unspecified) | 0.464 | 40.5
3 | Cn1nccc1Nc1nccc(-c2ccn([C@H](CO)c3ccc(Cl)c(F)c3)c(=O)c2)n1 | 25 | > 100
4 | N#Cc1nc2c(S(=O)(=O)c3ccc(Cl)cc3)c(N)n(Nc3cccc(Cl)c3)c2nc1C#N | 0.0277 | 
5 | O=C(Nc1cccc(-n2cc(-c3ccncc3)c(-c3cc(O)cc(Cl)c3)n2)c1)c1ccc(N2CCOCC2)c(C(F)(F)F)c1 | 1.84 | 29.3
6 | N#CC1c2ccccc2C=CN1C(=O)CCCl (stereo unspecified) | 1.73 | 3.22
7 | O=C1/C(=C\c2ccccc2)CN(C(=O)CCN2CCCCC2)C/C1=C/c1ccccc1 |  | 4.29
8 | O=C1NC(=N[C@@H](CO)c2ccccc2)S/C1=C\c1ccc2ncccc2c1 | 3.97 | > 25
9 | O=C1/C(=C/c2ccc(Cl)c(Cl)c2)CN(C(=O)CCN2CCC(=NO)CC2)C/C1=C\c1ccc(Cl)c(Cl)c1 | 0.641 | 1.62
10 | CCN(CC)CCCNc1ccc(C)c2sc3ccccc3c(=O)c12 | 0.869 | 2.31
11 | CCNc1nc(O)c(/C=C2\C=Nc3ncccc32)s1 | 2.58 | > 100
12 | O=C(/C=C/C12c3ccccc3C(c3ccccc31)C1C(=O)NC(=O)C12)c1ccccn1 (stereo unspecified) | 2.88 | 10.3
13 | CC1=C(C(=O)Nc2ccccc2)C(c2ccc(N(C)C)cc2)C(C(=O)Nc2ccccc2)=C(C)N1 |  | > 73.6

Each molecule was assayed on CCRF-CEM leukemia (assay: inhibition of tumour cell growth, NCI panel, 48 h).

Row | Structure (SMILES) | GI50 [µM] | TGI [µM]
14 | N#CC1(c2ccc(NC(=O)c3cccnc3NCc3ccncc3)cc2)CCCC1 | 12.9 | > 95
15 | CCN1C(=S)N(CC)C2C1NC(=S)N2/N=C/C=C/c1ccccc1OC (stereo unspecified) | 0.346 | > 100
16 | Cn1nccc1Nc1nccc(-c2ccn([C@H](CO)c3ccc(Cl)c(F)c3)c(=O)c2)n1 | 15.7 | > 85.1
17 | N#Cc1nc2c(S(=O)(=O)c3ccc(Cl)cc3)c(N)n(Nc3cccc(Cl)c3)c2nc1C#N | 0.0101 | 
18 | O=C(Nc1cccc(-n2cc(-c3ccncc3)c(-c3cc(O)cc(Cl)c3)n2)c1)c1ccc(N2CCOCC2)c(C(F)(F)F)c1 | 0.543 | > 100
19 | N#CC1c2ccccc2C=CN1C(=O)CCCl (stereo unspecified) | 3.45 | 21.2
20 | O=C1/C(=C\c2ccccc2)CN(C(=O)CCN2CCCCC2)C/C1=C/c1ccccc1 |  | 0.866
21 | O=C1NC(=N[C@@H](CO)c2ccccc2)S/C1=C\c1ccc2ncccc2c1 | 5.86 | 21.2
22 | O=C1/C(=C/c2ccc(Cl)c(Cl)c2)CN(C(=O)CCN2CCC(=NO)CC2)C/C1=C\c1ccc(Cl)c(Cl)c1 | 0.292 | 1.73
23 | CCN(CC)CCCNc1ccc(C)c2sc3ccccc3c(=O)c12 | 0.96 | 2.82
24 | CCNc1nc(O)c(/C=C2\C=Nc3ncccc32)s1 | 3.59 | > 100
25 | O=C(/C=C/C12c3ccccc3C(c3ccccc31)C1C(=O)NC(=O)C12)c1ccccn1 (stereo unspecified) | 1.44 | 9.92
26 | CC1=C(C(=O)Nc2ccccc2)C(c2ccc(N(C)C)cc2)C(C(=O)Nc2ccccc2)=C(C)N1 |  | 57.7

These molecules were tested on HCT-116 colon (assay: inhibition of tumour cell growth, NCI panel, 48 h).

Row | Structure (SMILES) | GI50 [µM] | TGI [µM]
27 | N#CC1(c2ccc(NC(=O)c3cccnc3NCc3ccncc3)cc2)CCCC1 | 12.1 | 32
28 | CCN1C(=S)N(CC)C2C1NC(=S)N2/N=C/C=C/c1ccccc1OC (stereo unspecified) | 0.326 | > 36.3
29 | Cn1nccc1Nc1nccc(-c2ccn([C@H](CO)c3ccc(Cl)c(F)c3)c(=O)c2)n1 | 2.79 | 21.1
30 | N#Cc1nc2c(S(=O)(=O)c3ccc(Cl)cc3)c(N)n(Nc3cccc(Cl)c3)c2nc1C#N | 0.015 | 
31 | O=C(Nc1cccc(-n2cc(-c3ccncc3)c(-c3cc(O)cc(Cl)c3)n2)c1)c1ccc(N2CCOCC2)c(C(F)(F)F)c1 | 1.96 | > 100
32 | N#CC1c2ccccc2C=CN1C(=O)CCCl (stereo unspecified) | 3.59 | 11.3
33 | O=C1/C(=C\c2ccccc2)CN(C(=O)CCN2CCCCC2)C/C1=C/c1ccccc1 |  | 0.709
34 | O=C1NC(=N[C@@H](CO)c2ccccc2)S/C1=C\c1ccc2ncccc2c1 | 5.22 | > 25
35 | O=C1/C(=C/c2ccc(Cl)c(Cl)c2)CN(C(=O)CCN2CCC(=NO)CC2)C/C1=C\c1ccc(Cl)c(Cl)c1 | 0.267 | 0.778
36 | CCN(CC)CCCNc1ccc(C)c2sc3ccccc3c(=O)c12 | 0.407 | 1.59
37 | CCNc1nc(O)c(/C=C2\C=Nc3ncccc32)s1 | 2.5 | > 100
38 | O=C(/C=C/C12c3ccccc3C(c3ccccc31)C1C(=O)NC(=O)C12)c1ccccn1 (stereo unspecified) | 1.42 | 3.14
39 | CC1=C(C(=O)Nc2ccccc2)C(c2ccc(N(C)C)cc2)C(C(=O)Nc2ccccc2)=C(C)N1 |  | > 57.3

The molecules below were run on HOP-62 NSCLC (assay: inhibition of tumour cell growth, NCI panel, 48 h).

Row | Structure (SMILES) | GI50 [µM] | TGI [µM]
40 | N#CC1(c2ccc(NC(=O)c3cccnc3NCc3ccncc3)cc2)CCCC1 | 22.4 | 84.9
41 | CCN1C(=S)N(CC)C2C1NC(=S)N2/N=C/C=C/c1ccccc1OC (stereo unspecified) | 0.453 | > 100
42 | Cn1nccc1Nc1nccc(-c2ccn([C@H](CO)c3ccc(Cl)c(F)c3)c(=O)c2)n1 | 37.8 | > 100
43 | N#Cc1nc2c(S(=O)(=O)c3ccc(Cl)cc3)c(N)n(Nc3cccc(Cl)c3)c2nc1C#N | 0.109 | 
44 | O=C(Nc1cccc(-n2cc(-c3ccncc3)c(-c3cc(O)cc(Cl)c3)n2)c1)c1ccc(N2CCOCC2)c(C(F)(F)F)c1 | 3.59 | 58.2
45 | N#CC1c2ccccc2C=CN1C(=O)CCCl (stereo unspecified) | 19.8 | 40.6
46 | O=C1/C(=C\c2ccccc2)CN(C(=O)CCN2CCCCC2)C/C1=C/c1ccccc1 |  | 25.7
47 | O=C1NC(=N[C@@H](CO)c2ccccc2)S/C1=C\c1ccc2ncccc2c1 | 12.7 | > 25
48 | O=C1/C(=C/c2ccc(Cl)c(Cl)c2)CN(C(=O)CCN2CCC(=NO)CC2)C/C1=C\c1ccc(Cl)c(Cl)c1 | 1.26 | 3.11
49 | CCN(CC)CCCNc1ccc(C)c2sc3ccccc3c(=O)c12 | 1.14 | 2.55
50 | CCNc1nc(O)c(/C=C2\C=Nc3ncccc32)s1 | 2.27 | 7.27
51 | O=C(/C=C/C12c3ccccc3C(c3ccccc31)C1C(=O)NC(=O)C12)c1ccccn1 (stereo unspecified) | 1.75 | 4.15
52 | CC1=C(C(=O)Nc2ccccc2)C(c2ccc(N(C)C)cc2)C(C(=O)Nc2ccccc2)=C(C)N1 |  | 24.2

Each molecule was assayed on NCI-H460 lung (assay: inhibition of tumour cell growth, NCI panel, 48 h).

Row | Structure (SMILES) | GI50 [µM] | TGI [µM]
53 | N#CC1(c2ccc(NC(=O)c3cccnc3NCc3ccncc3)cc2)CCCC1 | 14.1 | 54.3
54 | CCN1C(=S)N(CC)C2C1NC(=S)N2/N=C/C=C/c1ccccc1OC (stereo unspecified) | 0.335 | > 33.4
55 | Cn1nccc1Nc1nccc(-c2ccn([C@H](CO)c3ccc(Cl)c(F)c3)c(=O)c2)n1 | 38.4 | > 100
56 | N#Cc1nc2c(S(=O)(=O)c3ccc(Cl)cc3)c(N)n(Nc3cccc(Cl)c3)c2nc1C#N | 0.0704 | > 100
57 | O=C(Nc1cccc(-n2cc(-c3ccncc3)c(-c3cc(O)cc(Cl)c3)n2)c1)c1ccc(N2CCOCC2)c(C(F)(F)F)c1 | 0.797 | 3.48
58 | N#CC1c2ccccc2C=CN1C(=O)CCCl (stereo unspecified) | 18.4 | 36.3
59 | O=C1/C(=C\c2ccccc2)CN(C(=O)CCN2CCCCC2)C/C1=C/c1ccccc1 |  | 5.96
60 | O=C1NC(=N[C@@H](CO)c2ccccc2)S/C1=C\c1ccc2ncccc2c1 | 7.75 | > 25
61 | O=C1/C(=C/c2ccc(Cl)c(Cl)c2)CN(C(=O)CCN2CCC(=NO)CC2)C/C1=C\c1ccc(Cl)c(Cl)c1 | 0.933 | 2.57
62 | CCN(CC)CCCNc1ccc(C)c2sc3ccccc3c(=O)c12 | 0.46 | 1.71
63 | CCNc1nc(O)c(/C=C2\C=Nc3ncccc32)s1 | 3.93 | 17.8
64 | O=C(/C=C/C12c3ccccc3C(c3ccccc31)C1C(=O)NC(=O)C12)c1ccccn1 (stereo unspecified) | 1.08 | 4.11
65 | CC1=C(C(=O)Nc2ccccc2)C(c2ccc(N(C)C)cc2)C(C(=O)Nc2ccccc2)=C(C)N1 |  | > 100
